Laboratory results published in US20230248741A1, “Compositions and Methods for Lowering Triglycerides in a Subject with Reduced Kidney Function and Diabetes Mellitus” (Amarin Pharmaceuticals Ireland Limited, priority 2018, published 2023).

Legend:
[1] = tested on: patients with eGFR <90 mL/min/1.73 m^2 for ≥3 months and hsCRP ≥2.0 mg/L; assay: ANCHOR post-hoc (eGFR <90, hsCRP ≥2.0 mg/L): renal parameters; assay type: in vivo, human; conditions: 4 g/day
Protocol: CVD-related (e.g., atherogenic) parameters were analyzed in a post-hoc study of 152 patients from the multi-center, placebo-controlled, randomized double-blind, 12-week study described in Example 1. These 152 patients have reduced kidney reduced function (e.g., eGFR<90 mL/min/1.73 m^2 for ≥3 months) and hsCRP≥2.0 mg/L.

[2] = tested on: patients with fasting TG ≥200 and <500 mg/dl despite statin therapy; assay: ANCHOR study, entire population: fasting TG; assay type: in vivo, human; conditions: 4 g/day
Protocol: A multi-center, placebo-controlled, randomized, double-blind, 12-week study is performed to evaluate the efficacy and safety of >96% E-EPA in patients with fasting triglyceride levels ≥200 mg/dl and <500 mg/dl despite statin therapy (the mean of two qualifying entry values needs to be ≥185 mg/dl and at least one of the values needs to be ≥200 mg/dl). The primary objective of the study is to determine the efficacy of >96% E-EPA 2 g daily and 4 g daily, compared to placebo, in lowering fasting TG levels in patients with high risk for cardiovascular disease and with fasting TG levels ≥200 mg/dL and <500 mg/dL, despite treatment to LDL-C goal on statin therapy.
The primary efficacy variable for the double-blind treatment period is percent change in TG from baseline to Week 12 endpoint. […]

CC/C=C\C/C=C\C/C=C\C/C=C\C/C=C\CCCC(=O)OCC [E-EPA, ethyl eicosapentaenoate]
serum creatinine after 12 weeks ([1]; before 0.9 mg/dL, no change): 0.9 mg/dL
albumin after 12 weeks ([1]; before 4.5 g/dL, no statistically significant change): 4.4 g/dL
eGFR after 12 weeks ([1]; increase from 72.4): 78.5 mL/min/1.73 m^2
median TGs reduction from baseline [2]: −21.5%
